Measured values published in patent publication US9283161B2, “Aqueous cosmetic compositions containing resveratrol solubilized in a liquid phosphate ester surfactant” (DSM IP ASSETS B.V., priority 2011, dated 2016).

Assay: Solubilisation of resveratrol in the self emulsifying cosmetic base (mixing at 30-40° C.)
Assay type: physicochemical
Settings: Example 2, no co-emulsifier, continuous mixing at 30-40° C.
Experimental: A self emulsifying cosmetic base exempt of co-emulsifier was prepared by dissolving resveratrol in trilaureth-4 phosphate by continuous mixing at moderate temperature (30-40° C.). […] In all cases spontaneously an aqueous emulsion was formed which upon separation (after >1 week) could be easily re-formed by mere shaking.

Oc1ccc(/C=C/c2cc(O)cc(O)c2)cc1 [resveratrol]
appearance after dissolving resveratrol in trilaureth-4 phosphate: clear solution
